Measurements reported in paper PMC12019385 (Scientific Reports, 2025).

Legend:
[1] = molecular target: Hsp70 A (heat shock 70 kDa protein A) (Caenorhabditis elegans, UniProt P09446); test: microscale thermophoresis; assay type: binding
[2] = molecular target: V-ATPase A (V-type proton ATPase catalytic subunit A) (Caenorhabditis elegans, UniProt Q9XW92); test: microscale thermophoresis; assay type: binding
Sequence of V-ATPase A (V-type proton ATPase catalytic subunit A) (Q9XW92 whole entry): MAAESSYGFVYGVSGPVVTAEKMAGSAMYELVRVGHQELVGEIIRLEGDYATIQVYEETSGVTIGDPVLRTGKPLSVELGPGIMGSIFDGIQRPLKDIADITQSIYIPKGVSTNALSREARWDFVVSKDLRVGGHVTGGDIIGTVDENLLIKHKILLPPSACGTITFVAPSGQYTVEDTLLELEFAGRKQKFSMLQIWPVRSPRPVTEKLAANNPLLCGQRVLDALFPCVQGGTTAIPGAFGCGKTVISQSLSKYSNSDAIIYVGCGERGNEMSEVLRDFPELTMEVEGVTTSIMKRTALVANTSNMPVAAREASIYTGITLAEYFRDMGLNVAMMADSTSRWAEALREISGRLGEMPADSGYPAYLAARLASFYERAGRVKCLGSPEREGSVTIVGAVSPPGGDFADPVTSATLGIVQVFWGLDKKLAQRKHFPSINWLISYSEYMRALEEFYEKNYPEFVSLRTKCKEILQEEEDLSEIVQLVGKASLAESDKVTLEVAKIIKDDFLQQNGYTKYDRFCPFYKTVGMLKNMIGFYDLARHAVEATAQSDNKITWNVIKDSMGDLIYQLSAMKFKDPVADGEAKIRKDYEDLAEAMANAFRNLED

Sequence of Hsp70 A (heat shock 70 kDa protein A) (P09446 whole entry): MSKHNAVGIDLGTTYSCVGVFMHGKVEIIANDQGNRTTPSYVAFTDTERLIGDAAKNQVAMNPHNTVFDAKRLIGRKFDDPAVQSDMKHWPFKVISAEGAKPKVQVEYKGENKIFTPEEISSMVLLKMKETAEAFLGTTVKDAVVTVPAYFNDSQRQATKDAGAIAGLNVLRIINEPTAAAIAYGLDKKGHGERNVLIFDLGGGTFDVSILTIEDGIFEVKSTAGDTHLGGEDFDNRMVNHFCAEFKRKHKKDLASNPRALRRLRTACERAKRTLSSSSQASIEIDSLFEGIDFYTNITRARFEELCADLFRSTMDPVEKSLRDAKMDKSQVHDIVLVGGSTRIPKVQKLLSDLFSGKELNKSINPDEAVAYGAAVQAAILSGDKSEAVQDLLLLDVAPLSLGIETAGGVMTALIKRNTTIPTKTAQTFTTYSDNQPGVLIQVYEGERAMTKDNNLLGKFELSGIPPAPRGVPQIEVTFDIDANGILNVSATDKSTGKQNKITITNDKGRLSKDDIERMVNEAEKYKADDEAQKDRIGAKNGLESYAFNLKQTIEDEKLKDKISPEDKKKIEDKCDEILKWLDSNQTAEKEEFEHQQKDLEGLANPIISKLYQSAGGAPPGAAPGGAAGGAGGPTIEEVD

CCCCCCCCCC(C)=O [2-undecanone]
Kd [1]: 117 ± 16.3 nM | Kd [2]: 302 ± 43.9 nM
